Values after ≈ are worked out from the molar mass of the structure shown.
Tested on: human red blood cells
Experiment: Hemolytic assay
Format: cell-based
Conditions: concentration at 10% hemolytic activity on human red blood cells; mean (n = 2)
Description: Human whole blood was washed three times with 3 volumes of 0.9% NaCl and then resuspended in same to a concentration of 0.5 × 10^8 cells/mL, as determined by manual cell count in a Neubauer hemocytometer. The washed cells were then added to the 384-well compound-containing plates for a final volume of 50 μL. After a 10 min shake on a plate shaker the plates were then incubated for 1 h at 37 °C. After incubation, the plates were centrifuged at 1000 g for 10 min to pellet cells and debris, 25 μL of the supernatant was then transferred to a polystyrene 384-well assay plate. Hemolysis was determined by measuring the supernatant absorbance at […] (OD405). The absorbance was measured using a Tecan M1000 Pro monochromator plate reader. HC10 and HC50 (concentration at 10% and 50% hemolysis, respectively) were calculated by curve fitting the inhibition values vs. log(concentration) using a sigmoidal dose–response function with variable fitting values for top, bottom and slope.

Molecule | HC10
Melittin [reference compound] | 2.7 µg/mL

Tested on: not given
Experiment: not given
Conditions: not given

Molecule | melting point
Fc1ccc2[nH]cc(-c3cncn3CCc3ccccc3)c2c1 [Compound 3, 5-Fluoro-3-(1-phenethyl-1H-imidazol-5-yl)-1H-indole] | 127 to 130 °C
COc1ccc(CCn2cncc2-c2c[nH]c3ccc(OC)cc23)cc1 [Compound 71, 5-Methoxy-3-(1-(4-methoxyphenethyl)-1H-imidazol-5-yl)-1H-indole] | 48 to 49 °C
COc1ccc(CCn2cncc2-c2c[nH]c3cc(OC)ccc23)cc1 [Compound 72, 6-Methoxy-3-(1-(4-methoxyphenethyl)-1H-imidazol-5-yl)-1H-indole] | 45 to 46 °C
Fc1cccc2[nH]cc(-c3cncn3Cc3c[nH]c4ccccc34)c12 [Compound 73, 3-(1-((1H-Indol-3-yl)methyl)-1H-imidazol-5-yl)-4-fluoro-1H-indole] | 164 to 165 °C
Fc1cccc2c(-c3cncn3Cc3c[nH]c4ccccc34)c[nH]c12 [Compound 74, 3-(1-((1H-Indol-3-yl)methyl)-1H-imidazol-5-yl)-7-fluoro-1H-indole] | 186 to 187 °C
Clc1cccc2[nH]cc(-c3cncn3Cc3c[nH]c4ccccc34)c12 [Compound 75, 3-(1-((1H-Indol-3-yl)methyl)-1H-imidazol-5-yl)-4-chloro-1H-indole] | 195 to 196 °C
Clc1ccc2[nH]cc(-c3cncn3Cc3c[nH]c4ccccc34)c2c1 [Compound 76, 3-(1-((1H-Indol-3-yl)methyl)-1H-imidazol-5-yl)-5-chloro-1H-indole] | 107 to 108 °C
Clc1cccc2c(-c3cncn3Cc3c[nH]c4ccccc34)c[nH]c12 [Compound 77, 3-(1-((1H-Indol-3-yl)methyl)-1H-imidazol-5-yl)-7-chloro-1H-indole] | 165 to 166 °C
Brc1cccc2[nH]cc(-c3cncn3Cc3c[nH]c4ccccc34)c12 [Compound 78, 3-(1-((1H-Indol-3-yl)methyl)-1H-imidazol-5-yl)-4-bromo-1H-indole] | 201 to 202 °C
COc1ccc2[nH]cc(-c3cncn3Cc3c[nH]c4ccccc34)c2c1 [Compound 79, 3-(1-((1H-Indol-3-yl)methyl)-1H-imidazol-5-yl)-5-methoxy-1H-indole] | 97 to 98 °C
COc1ccc2c(-c3cncn3Cc3c[nH]c4ccccc34)c[nH]c2c1 [Compound 80, 3-(1-((1H-Indol-3-yl)methyl)-1H-imidazol-5-yl)-6-methoxy-1H-indole] | 95 to 96 °C
Fc1cccc2[nH]cc(-c3cncn3CCc3c[nH]c4ccccc34)c12 [Compound 81, 3-(1-(2-(1H-Indol-3-yl)ethyl)-1H-imidazol-5-yl)-4-fluoro-1H-indole] | > 230 °C
Fc1cccc2c(-c3cncn3CCc3c[nH]c4ccccc34)c[nH]c12 [Compound 82, 3-(1-(2-(1H-Indol-3-yl)ethyl)-1H-imidazol-5-yl)-7-fluoro-1H-indole] | > 230 °C
Clc1ccc2[nH]cc(-c3cncn3CCc3c[nH]c4ccccc34)c2c1 [Compound 84, 3-(1-(2-(1H-Indol-3-yl)ethyl)-1H-imidazol-5-yl)-5-chloro-1H-indole] | 70 to 71 °C
Brc1cccc2[nH]cc(-c3cncn3CCc3c[nH]c4ccccc34)c12 [Compound 86, 3-(1-(2-(1H-Indol-3-yl)ethyl)-1H-imidazol-5-yl)-4-bromo-1H-indole] | > 230 °C
COc1ccc2[nH]cc(-c3cncn3CCc3c[nH]c4ccccc34)c2c1 [Compound 87, 3-(1-(2-(1H-Indol-3-yl)ethyl)-1H-imidazol-5-yl)-5-methoxy-1H-indole] | 152 to 153 °C
COc1ccc2c(-c3cncn3CCc3c[nH]c4ccccc34)c[nH]c2c1 [Compound 88, 3-(1-(2-(1H-Indol-3-yl)ethyl)-1H-imidazol-5-yl)-6-methoxy-1H-indole] | 81 to 82 °C
CCCCCn1cncc1-c1c[nH]c2c(Cl)cccc12 [Compound 93, 7-Chloro-3-(1-pentyl-1H-imidazol-5-yl)-1H-indole] | 122 to 123 °C
CCCCCn1cncc1-c1c[nH]c2cccc(Br)c12 [Compound 94, 4-Bromo-3-(1-pentyl-1H-imidazol-5-yl)-1H-indole] | 207 to 208 °C
c1ccc(Cn2cncc2-c2ccccc2)cc1 [Compound 103, 1-Benzyl-5-phenyl-1H-imidazole] | 99 to 100 °C
COc1ccc(-c2cncn2Cc2ccccc2)cc1 [Compound 104, 1-Benzyl-5-(4-methoxyphenyl)-1H-imidazole] | 83 to 84 °C
COc1ccc(-c2cncn2Cc2c[nH]c3ccccc23)cc1 [Compound 112, 3-((5-(4-Methoxyphenyl)-1H-imidazol-1-yl)methyl)-1H-indole] | 152 to 153 °C
c1ccc(-c2cncn2CCc2c[nH]c3ccccc23)cc1 [Compound 113, 3-(2-(5-Phenyl-1H-imidazol-1-yl)ethyl)-1H-indole] | 155 to 156 °C
COc1ccc(-c2cncn2CCc2c[nH]c3ccccc23)cc1 [Compound 114, 3-(2-(5-(4-Methoxyphenyl)-1H-imidazol-1-yl)ethyl)-1H-indole] | 169 to 170 °C

Tested on: Cryptococcus neoformans ATCC208821
Experiment: Antifungal MIC, C. neoformans
Format: cell-based
Conditions: Cryptococcus neoformans ATCC208821; mean (n = 2)
Description: For the antifungal assay, fungi strains were cultured for 3 days on yeast extract-peptone dextrose (YPD) agar at 30 °C. A yeast suspension of 1 × 10^6 to 5 × 10^6 CFU/mL was prepared from five colonies. These stock suspensions were diluted with yeast nitrogen base (YNB) (Becton Dickinson, 233520) broth to a final concentration of 2.5 × 10^3 CFU/mL. The compounds were serially diluted 2-fold across the wells of 96-well plates (Corning 3641, nonbinding surface), with compound concentrations ranging from 0.015 to 64 μg/mL and final volumes of 50 μL, plated in duplicate. Then, 50 μL of the fungi suspension that was previously prepared in YNB broth to the final concentration of 2.5 × 10^3 CFU/mL was added to each well of the compound-containing plates, giving a final compound concentration range of 0.008 to 32 μg/mL. Plates were covered and incubated at 35 °C for 36 h without shaking. C. albicans MICs were determined by measuring the absorbance at OD530. For C. neoformans, resazurin was added at 0.006% final concentration to each well and incubated for a further 3 h before MICs were determined by measuring the absorbance at OD570–600.
(§1) Colistin and vancomycin were used as positive bacterial inhibitor standards for Gram-negative and Gram-positive bacteria, respectively. Fluconazole was used as a positive fungal inhibitor standard for C. albicans and C. neoformans. The antibiotics were provided in 4 concentrations, with 2 above and 2 below its MIC value, and plated into the first 8 wells of column 23 of the 384-well NBS plates. The quality control (QC) of the assays was determined by the antimicrobial controls and the Z′-factor (using positive and negative controls).

Molecule | MIC
OC(Cn1cncn1)(Cn1cncn1)c1ccc(F)cc1F [fluconazole, reference compound] | 8 mg/L (≈ 26.1 µM)

Tested on: Staphylococcus aureus ATCC25923
Experiment: MIC by broth dilution, S. aureus ATCC25923
Format: cell-based
Conditions: Staphylococcus aureus ATCC25923; mean (n = 3)
Description: The susceptibility of S. aureus (ATCC25923) to antibiotics and compounds was determined in microplates using the standard broth dilution method in accordance with the recommendations of the Comité de l’AntibioGramme de la Société Française de Microbiologie (CA-SFM) as previously described. Briefly, the minimal inhibitory concentrations (MICs) were determined with an inoculum of 10^5 CFU in 200 µL of Mueller-Hinton broth (MHB) containing two-fold serial dilutions of each drug. […] To determine all MICs, the measurements were independently repeated in triplicate.

Molecule | MIC
O=C(N[C@H](CO)[C@H](O)c1ccc([N+](=O)[O-])cc1)C(Cl)Cl [chloramphenicol, reference compound] | 0.5 to 1 mg/L (≈ 1.55 to 3.09 µM)
[H]/N=C(/N)N[C@H]1[C@H](O)[C@@H](O)[C@H](O[C@@H]2O[C@@H](C)[C@](O)(C=O)[C@H]2O[C@@H]2O[C@@H](CO)[C@H](O)[C@@H](O)[C@@H]2NC)[C@@H](N/C(N)=N\[H])[C@@H]1O [streptomycin, reference compound] | 12.5 mg/L (≈ 21.5 µM)

Tested on: Staphylococcus aureus ATCC43300 (MRSA)
Experiment: MIC, MRSA ATCC43300 (CO-ADD protocol)
Format: cell-based
Conditions: Staphylococcus aureus, read-out: MIC (µg/mL) MRSA
Excerpt: Additional antimicrobial evaluation against Staphylococcus aureus MRSA (ATCC43300), Pseudomonas aeruginosa (ATCC27853), Escherichia coli (ATCC25922), Klebsiella pneumoniae (ATCC700603), Acinetobacter baumannii (ATCC19606), Candida albicans (ATCC90028), and Cryptococcus neoformans (ATCC208821) was undertaken at the Community for Open Antimicrobial Drug Discovery at The University of Queensland (Australia) according to their standard protocols. For antimicrobial assays, the tested strains were cultured in either Luria broth (LB) (In Vitro Technologies, USB75852, Noble Park North, Australia), nutrient broth (NB) (Becton Dickson, 234000, Macquarie Park, Australia), or cation-adjusted MHB at 37 °C overnight. A sample of culture was then diluted 40-fold in fresh MHB and incubated at 37 °C for 1.5−2 h. The compounds were serially diluted 2-fold across the wells of 96-well plates (Corning 3641, Tewksbury, MA, USA, nonbinding surface), with compound concentrations ranging from 0.015 to 64 μg/mL, plated in duplicate. The resultant mid log phase cultures were diluted to the final concentration of 1 × 10^6 CFU/mL; then, 50 μL was added to each well of the compound containing plates giving a final compound concentration range of 0.008 to 32 μg/mL and a cell density of 5 × 10^5 CFU/mL. All plates were then covered and incubated at 37 °C for 18 h. Resazurin was added at 0.001% final concentration to each well and incubated for 2 h before MICs were read by eye.
as §1

Molecule | MIC
CN[C@H](CC(C)C)C(=O)N[C@H]1C(=O)N[C@@H](CC(N)=O)C(=O)N[C@H]2C(=O)N[C@H]3C(=O)N[C@H](C(=O)N[C@H](C(=O)O)c4cc(O)cc(O)c4-c4cc3ccc4O)[C@H](O)c3ccc(c(Cl)c3)Oc3cc2cc(c3O[C@@H]2O[C@H](CO)[C@@H](O)[C@H](O)[C@H]2O[C@H]2C[C@](C)(N)[C@H](O)[C@H](C)O2)Oc2ccc(cc2Cl)[C@H]1O [vancomycin, reference compound] | 1 µg/mL (≈ 0.69 µM)

Same assay, conditions: result in words

Molecule | anti-MRSA activity (in words)
Fc1ccc2[nH]cc(-c3cncn3CCc3ccccc3)c2c1 [Compound 3, 5-Fluoro-3-(1-phenethyl-1H-imidazol-5-yl)-1H-indole] | devoid of activity
